According to patent publication US20240217963A1, “RECEPTOR-INTERACTING PROTEIN 1 INHIBITORS, PREPARATIONS, AND USES THEREOF” (SIRONAX LTD., priority 2021, published 2024):

The compounds below were run against T1, RIP1 (Homo sapiens, UniProt Q13546) (assay: Cellular RIP1 inhibitory activity: HT-29 necroptosis (TNFα/SMAC mimetic/zVAD-FMK) CellTiter-Glo viability assay). Conditions: HT-29 cells, TNF-α 10 ng/ml + SMAC mimetic 6 μM + zVAD-FMK 10 μM, 20 hours, geometric mean, read-out: EC50 Values of in vitro Cellular RIP1 Inhibitory Activity.
T1 sequence (Q13546 1-671): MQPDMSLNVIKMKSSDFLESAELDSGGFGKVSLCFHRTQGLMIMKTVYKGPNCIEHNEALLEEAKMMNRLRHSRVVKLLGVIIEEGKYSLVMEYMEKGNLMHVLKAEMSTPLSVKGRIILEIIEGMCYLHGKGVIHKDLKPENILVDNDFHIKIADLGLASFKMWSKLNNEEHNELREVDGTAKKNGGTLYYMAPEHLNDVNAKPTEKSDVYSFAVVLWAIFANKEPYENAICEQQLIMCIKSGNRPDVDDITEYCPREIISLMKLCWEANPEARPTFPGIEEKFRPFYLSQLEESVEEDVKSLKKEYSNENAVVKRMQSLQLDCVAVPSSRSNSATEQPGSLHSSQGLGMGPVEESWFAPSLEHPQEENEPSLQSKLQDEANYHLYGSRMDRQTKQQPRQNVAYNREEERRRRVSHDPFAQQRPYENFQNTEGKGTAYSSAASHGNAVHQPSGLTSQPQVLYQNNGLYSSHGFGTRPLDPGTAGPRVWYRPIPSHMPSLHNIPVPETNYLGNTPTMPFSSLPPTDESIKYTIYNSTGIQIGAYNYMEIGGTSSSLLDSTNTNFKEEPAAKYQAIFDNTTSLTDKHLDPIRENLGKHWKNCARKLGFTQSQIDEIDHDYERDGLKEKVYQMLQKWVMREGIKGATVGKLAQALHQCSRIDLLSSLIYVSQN
Format: cell-based
Method: Compounds 1-99 (denoted as Cmpd Nos. 1 through 99 in Table 2 below) of the disclosure were tested for binding and cellular RIP1 inhibitory activity following the experimental procedures described below. Cell Seeding • 1. HT-29 cells were checked every day to make sure that they were healthy and growing as expected. They were subjected to sub-culturing when they were approximately 80% confluent. • 2. The culture medium, McCOY's 5 A medium (Gibco, Cat No. 16600-082) with 10% fetal bovine serum or FBS (Gibco, Cat No. 10099-141C), was pre-warmed in a 37° C. water bath for at least 30 min. • 3. When the cells had reached a desired level of confluency of 80% in a T75 flask, the medium was aspirated, and the cells were washed with warm phosphate buffered saline or PBS two times. • 4. 2-3 ml fresh warm trypsin (Gibco, Cat No. 25200-056) solution was added to the washed cells. The flask with the cells was transferred to a 37° C. incubator. • 5. After 5 minutes, the side of the flask was tapped, and the flask was examined under a microscope for detachment of the cells to the flask. If necessary, the cells were kept in the incubator for an additional 5-10 minutes, with occasional tapping, until lifting was complete. • 6. The trypsin reaction was neutralized by transferring 6-9 ml cell culture medium to sterile 15 ml conical tubes, and by centrifuging the cell culture at 300×g for 7 minutes to pellet the cells (supernatant decanted). • 7. The cells were resuspended in fresh cell culture medium and the cell counting was performed using a hemocytometer. • 8. 100 μl of the resuspended cell culture medium containing ˜5,000 cells were transferred into each well of the sterile 96-well cell culture plate (Corning 3903) and cultured overnight at 37° C. with 5% CO2. Compound Titration and Treatment • 1. All test compounds were dissolved in DMSO (Dimethyl sulfoxide) to create a 20 mM stock. • 2. 3 μl of each compound 20 mM stock was mixed with 27 μl DMSO, and the compound solution was further diluted at a titration ratio of 1:3 (20 μl compound solution+40 μl DMSO) till the 10 points end. • 3. All culture medium was removed from assay plates filled with HT-29 cell cultures. […] 0.5 μL of the diluted compound solution was added to the corresponding 96-well assay plates. • 5. The assay plates were incubated for 20 hours at 37° C. with 5% CO2. Cell Viability Detection • 1. The CellTiter-Glo® Luminescent Cell Viability Assay was employed to detect the ATP levels of viable HT-29 cells. • 2. The CellTiter-Glo® buffer and the lyophilized substrate were equilibriated to room temperature prior to use. • 3. The CellTiter-Glo® substrate was resuspended with CellTiter-Glo® buffer, then mixed by gently vortexing to obtain a homogeneous solution. • 4. 20 μl the enzyme/substrate mixture was transferred by multi-channel pipetting into 96-well assay plates. • 5. The assay plates were placed on an orbital shaker and the contents were shaken for 3 minutes to induce cell lysis. • 6. The assay plates were incubated at room temperature for 10 minutes to stabilize the luminescent signal. • 7. The luminescence signals were read and recorded with EnVision. • 8. The geometric mean EC50 values were calculated from 10 points response dose with duplicates. In Table 2, activity is provided as follows: +++=0.1 nM≤EC50<100 nM; ++=100 nM≤EC50<1000 nM; +=1000 nM≤EC50<10000 nM.

First: Cc1cnn(C)c1-c1nc(N2CCC(C(=O)N(O)Cc3cnco3)CC2)ncc1F [Compound 23, 1-(4-(1,4-dimethyl-1H-pyrazol-5-yl)-5-fluoropyrimidin-2-yl)-N-hydroxy-N-(oxazol-5-ylmethyl)piperidine-4-carboxamide]
Second: Cc1cnn(C)c1-c1nc(N2CCC(C(=O)N(O)Cc3cncn3C)CC2)ncc1F [Compound 40, 1-(4-(1,4-dimethyl-1H-pyrazol-5-yl)-5-fluoropyrimidin-2-yl)-N-hydroxy-N-((1-methyl-1H-imidazol-5-yl)methyl)piperidine-4-carboxamide]
The EC50 of the first is lower: 0.1 to 100 nM for the first, 1000 to 10000 nM for the second.

First: Cc1ncc(CN(O)C(=O)C2CCN(c3ncc(F)c(-c4c(C)cnn4C)n3)CC2)s1 [Compound 24, 1-(4-(1,4-dimethyl-1H-pyrazol-5-yl)-5-fluoropyrimidin-2-yl)-N-hydroxy-N-((2-methylthiazol-5-yl)methyl)piperidine-4-carboxamide]
Second: Cc1cnn(C)c1-c1nc(N2CCC(C(=O)N(O)Cc3ccnn3C)CC2)ncc1F [Compound 27, 1-(4-(1,4-dimethyl-1H-pyrazol-5-yl)-5-fluoropyrimidin-2-yl)-N-hydroxy-N-((1-methyl-1H-pyrazol-5-yl)methyl)piperidine-4-carboxamide]
The EC50 of the first is lower: 0.1 to 100 nM for the first, 100 to 1000 nM for the second. The first is the more potent here.

`Cc1cnn(C)c1-c1nc(N2CCC(C(=O)N(O)Cc3cccnc3F)CC2)ncc1F` [Compound 25, 1-(4-(1,4-dimethyl-1H-pyrazol-5-yl)-5-fluoropyrimidin-2-yl)-N-((2-fluoropyridin-3-yl)methyl)-N-hydroxypiperidine-4-carboxamide] and `Cc1cnn(C)c1-c1nc(N2CCC(C(=O)N(O)Cc3ccccn3)CC2)ncc1F` [Compound 31, 1-(4-(1,4-dimethyl-1H-pyrazol-5-yl)-5-fluoropyrimidin-2-yl)-N-hydroxy-N-(pyridin-2-ylmethyl)piperidine-4-carboxamide] fall in the same range of EC50: 0.1 to 100 nM for the first, 0.1 to 100 nM for the second.

`Cc1cnn(C)c1-c1nc(N2CCC(C(=O)N(O)Cc3ccc(F)nc3)CC2)ncc1F` [Compound 26] and `Cc1cnn(C)c1-c1nc(N2CCC(C(=O)N(O)Cc3cncc(F)c3)CC2)ncc1F` [Compound 37, 1-(4-(1,4-dimethyl-1H-pyrazol-5-yl)-5-fluoropyrimidin-2-yl)-N-((5-fluoropyridin-3-yl)methyl)-N-hydroxypiperidine-4-carboxamide] fall in the same range of EC50: 0.1 to 100 nM for the first, 0.1 to 100 nM for the second.

First: Cc1cnn(C)c1-c1nc(N2CCC(C(=O)NCC3CCCCC3)CC2)ncc1F [Compound 28, N-(cyclohexylmethyl)-1-(4-(1,4-dimethyl-1H-pyrazol-5-yl)-5-fluoropyrimidin-2-yl)piperidine-4-carboxamide]
Second: Cc1cnn(C)c1-c1nc(N2CCC(C(=O)NCc3cnn(C)c3)CC2)ncc1F [Compound 45, 1-(4-(1,4-dimethyl-1H-pyrazol-5-yl)-5-fluoropyrimidin-2-yl)-N-((1-methyl-1H-pyrazol-4-yl)methyl)piperidine-4-carboxamide]
The EC50 of the first is lower: 0.1 to 100 nM for the first, 1000 to 10000 nM for the second. The first is the more potent here.

`Cc1cnn(C)c1-c1nc(N2CCN(C(=O)N(O)Cc3cc(F)cc(F)c3)CC2)ncc1F` [Compound 29, N-(3,5-difluorobenzyl)-4-(4-(1,4-dimethyl-1H-pyrazol-5-yl)-5-fluoropyrimidin-2-yl)-N-hydroxypiperazine-1-carboxamide] and `Cc1cnn(C)c1-c1nc(N2CCC(C(=O)N(O)Cc3cc(F)cc(C#N)c3)CC2)ncc1F` [Compound 32, N-(3-cyano-5-fluorobenzyl)-1-(4-(1,4-dimethyl-1H-pyrazol-5-yl)-5-fluoropyrimidin-2-yl)-N-hydroxypiperidine-4-carboxamide] fall in the same range of EC50: 0.1 to 100 nM for the first, 0.1 to 100 nM for the second.

First: O=C(C1CCN(c2ncc(F)cn2)CC1)N(O)Cc1cc(F)cc(F)c1 [Compound 30, N-(3,5-difluorobenzyl)-1-(5-fluoropyrimidin-2-yl)-N-hydroxypiperidine-4-carboxamide]
Second: Cc1cnn(C)c1-c1cc(N2CCC(C(=O)N(O)Cc3cc(F)cc(F)c3)CC2)ncn1 [Compound 41, N-(3,5-difluorobenzyl)-1-(6-(1,4-dimethyl-1H-pyrazol-5-yl)pyrimidin-4-yl)-N-hydroxypiperidine-4-carboxamide]
The EC50 of the first is higher: 100 to 1000 nM for the first, 0.1 to 100 nM for the second. The second is the more potent here.

`Cc1cnn(C)c1-c1nc(N2CCC(C(=O)N(O)Cc3ccccc3)CC2)ncc1F` [Compound 33, N-benzyl-1-(4-(1,4-dimethyl-1H-pyrazol-5-yl)-5-fluoropyrimidin-2-yl)-N-hydroxypiperidine-4-carboxamide] and `Cc1cnn(C)c1-c1nc(N2CCC(C(=O)N(O)Cc3cccnc3)CC2)ncc1F` [Compound 38, 1-(4-(1,4-dimethyl-1H-pyrazol-5-yl)-5-fluoropyrimidin-2-yl)-N-hydroxy-N-(pyridin-3-ylmethyl)piperidine-4-carboxamide] fall in the same range of EC50: 0.1 to 100 nM for the first, 0.1 to 100 nM for the second.

`Cc1cnn(C)c1-c1nc(N2CCC(C(=O)N(O)C(C)c3ccccc3)CC2)ncc1F` (centres unmarked) [Compound 34, 1-(4-(1,4-dimethyl-1H-pyrazol-5-yl)-5-fluoropyrimidin-2-yl)-N-hydroxy-N-(1-phenylethyl)piperidine-4-carboxamide] and `Cc1cnn(C)c1-c1nc(N2CCC(C(=O)N[C@@H](CO)c3ccccc3)CC2)ncc1F` [Compound 35, (R)-1-(4-(1,4-dimethyl-1H-pyrazol-5-yl)-5-fluoropyrimidin-2-yl)-N-(2-hydroxy-1-phenylethyl)piperidine-4-carboxamide] fall in the same range of EC50: 0.1 to 100 nM for the first, 0.1 to 100 nM for the second.

`Cc1cnn(C)c1-c1nc(N2CCC(C(=O)N[C@H](CO)c3ccccc3)CC2)ncc1F` [Compound 36, (S)-1-(4-(1,4-dimethyl-1H-pyrazol-5-yl)-5-fluoropyrimidin-2-yl)-N-(2-hydroxy-1-phenylethyl)piperidine-4-carboxamide] and `Cc1cnn(C)c1-c1nc(N2CCC(C(=O)NCc3ccn(C)n3)CC2)ncc1F` [Compound 44, 1-(4-(1,4-dimethyl-1H-pyrazol-5-yl)-5-fluoropyrimidin-2-yl)-N-((1-methyl-1H-pyrazol-3-yl)methyl)piperidine-4-carboxamide] fall in the same range of EC50: 1000 to 10000 nM for the first, 1000 to 10000 nM for the second.

`Cc1cnn(C)c1-c1nc(N2CCC(C(=O)N(O)Cc3nccn3C)CC2)ncc1F` [Compound 39, 1-(4-(1,4-dimethyl-1H-pyrazol-5-yl)-5-fluoropyrimidin-2-yl)-N-hydroxy-N-((1-methyl-1H-imidazol-2-yl)methyl)piperidine-4-carboxamide] and `Cc1cnn(C)c1-c1nc(N2CCC(C(=O)NCc3cc(C)n(C)n3)CC2)ncc1F` [Compound 43, N-((1,5-dimethyl-1H-pyrazol-3-yl)methyl)-1-(4-(1,4-dimethyl-1H-pyrazol-5-yl)-5-fluoropyrimidin-2-yl)piperidine-4-carboxamide] fall in the same range of EC50: 1000 to 10000 nM for the first, 1000 to 10000 nM for the second.

`Cc1cnn(C)c1-c1cc(N2CCC(C(=O)NCc3cc(F)cc(F)c3)CC2)ncn1` [Compound 42, N-(3,5-difluorobenzyl)-1-(6-(1,4-dimethyl-1H-pyrazol-5-yl)pyrimidin-4-yl)piperidine-4-carboxamide] showed an EC50 of 100 to 1000 nM.
